Our source for the IC50 values is patent US4933346A, “Diarylalkyl piperazine derivatives, a process for their preparation, their use, and medicaments containing them” (Hoechst Aktiengesellschaft, priority 1987, dated 1990).

The assay addresses ^3 H-nitrendipine binding, membrane preparation obtained from the cortex of the rat brain. The experiment in a line: displacement of tritium-labeled nitrendipine in a membrane preparation from the cortex of the rat brain. The note with it: ^3 H-nitrendipine 0.1 nM, 25° C., 60 min, pH 7.4; unspecific binding with 1 μM nifedipine. On the procedure: We carried out this test in a membrane preparation obtained from the cortex of the rat brain and washed several times, the method which we used being essentially that of R. J. Gould et al. (Proc. Natl. Acad. Sci. USA 79, 3656 [1982]). […] The membrane fractions were removed by vacuum filtration through Whatman GF/F fiber glass filters, and the radioactivity was measured in a liquid scintillation counter. We determined the unspecific ^3 H-nitrendipine binding in the presence of 1 μM nifedipine. The IC50 is determined as characteristic quantity, i.e. the concentration of test substance which is able to displace 50% of the radiolabeled nitrendipine.

Counter-ions that a name gives are not always drawn.

As usually defined, the IC50 is the point on the concentration scale where inhibition reaches its midpoint. Low readings indicate inhibition by little substance, high ones a need for much substance.

`Fc1ccc(SCCN2CCN(CCCC(c3ccc(F)cc3)c3ccc(F)cc3)CC2)cc1` [Example 3, 1-[4,4-bis(4-fluorophenyl)butyl]-4-[2-(4-fluorophenylthio)ethyl]piperazine dihydrochloride]: the IC50 was determined as 7 nM.
Then `Fc1ccc(C(CCCN2CCN(CCSc3cccc(Cl)c3)CC2)c2ccc(F)cc2)cc1` [Example 5, 1-[4,4-bis(4-fluorophenyl)butyl]-4-[2-(3-chlorophenylthio)ethyl]piperazine dihydrochloride], with 1.2 nM.
Next, `Cc1ccc(SCCN2CCN(CCCC(c3ccc(F)cc3)c3ccc(F)cc3)CC2)cc1` [Example 2, 1-[4,4-bis(4-fluorophenyl)butyl]-4-[2-(4-methylphenylthio)ethyl]piperazine dihydrochloride]: 20 nM; `Cc1cccc(C)c1NC(=O)CN1CCN(CCCC(c2ccc(F)cc2)c2ccc(F)cc2)CC1` [Lidoflazine, lidoflazine, reference compound]: 430 nM.
`O=[N+]([O-])c1ccc(SCCN2CCN(CCCC(c3ccc(F)cc3)c3ccc(F)cc3)CC2)cc1` [Example 4, 1-[4,4-bis(4-fluorophenyl)butyl]-4-[2-(4-nitrophenylthio)ethyl]piperazine dihydrochloride] gave an IC50 of 22 nM.
In turn, `Fc1ccc(C(CCCN2CCN(CCSc3ccc(Cl)cc3)CC2)c2ccc(F)cc2)cc1` [Example 1, 1-[4,4-bis(4-fluorophenyl)butyl]-4-[2-(4-chlorophenylthio)ethyl]piperazine] returned a 50% inhibitory concentration (IC50) of 4 nM.
